{"source": "patent US11479559B2", "about": "“Urea-substituted aromatic ring-linked dioxinoquinoline compounds, preparation method and uses thereof” (BEIJING SCITECH-MQ PHARMACEUTICALS LIMITED, priority 2018, dated 2022)", "data": [{"target": "RET tyrosine kinase (Homo sapiens (Human), UniProt P07949)", "sequence (P07949 29-1114)": "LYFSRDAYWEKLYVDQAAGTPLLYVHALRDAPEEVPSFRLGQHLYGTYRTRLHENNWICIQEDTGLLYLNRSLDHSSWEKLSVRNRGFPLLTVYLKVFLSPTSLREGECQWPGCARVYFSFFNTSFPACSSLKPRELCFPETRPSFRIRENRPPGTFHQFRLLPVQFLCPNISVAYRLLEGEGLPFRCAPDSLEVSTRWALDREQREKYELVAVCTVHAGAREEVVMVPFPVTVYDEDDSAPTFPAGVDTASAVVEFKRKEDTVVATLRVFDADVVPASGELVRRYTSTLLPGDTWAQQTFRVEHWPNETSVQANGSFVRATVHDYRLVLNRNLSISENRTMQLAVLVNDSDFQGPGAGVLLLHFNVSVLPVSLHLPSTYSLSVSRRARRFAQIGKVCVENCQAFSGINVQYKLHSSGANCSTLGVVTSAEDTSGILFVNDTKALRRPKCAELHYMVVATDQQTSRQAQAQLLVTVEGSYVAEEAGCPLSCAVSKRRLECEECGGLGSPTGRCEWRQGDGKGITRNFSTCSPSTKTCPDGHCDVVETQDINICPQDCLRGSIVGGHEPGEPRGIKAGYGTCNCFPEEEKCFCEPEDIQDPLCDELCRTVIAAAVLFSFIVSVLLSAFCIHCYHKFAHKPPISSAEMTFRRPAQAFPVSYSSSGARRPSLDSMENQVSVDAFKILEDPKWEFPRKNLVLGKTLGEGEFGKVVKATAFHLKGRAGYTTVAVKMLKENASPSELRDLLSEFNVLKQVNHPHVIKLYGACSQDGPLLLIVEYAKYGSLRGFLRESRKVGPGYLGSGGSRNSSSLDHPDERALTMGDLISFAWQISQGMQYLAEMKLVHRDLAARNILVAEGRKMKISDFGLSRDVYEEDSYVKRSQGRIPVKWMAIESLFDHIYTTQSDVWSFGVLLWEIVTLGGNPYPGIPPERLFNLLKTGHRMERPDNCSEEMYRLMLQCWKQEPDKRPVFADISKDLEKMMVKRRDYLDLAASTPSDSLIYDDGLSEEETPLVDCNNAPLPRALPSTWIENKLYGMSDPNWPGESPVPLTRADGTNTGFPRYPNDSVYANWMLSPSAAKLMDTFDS", "assay": "Assay of small molecular compounds for inhibiting the activity of RET kinase (LANCE TR-FRET)", "conditions": "not given", "units": {"IC50": "nM"}, "values": [{"smiles": "COc1cc2nccc(Oc3ccc(NC(=O)Nc4ccc(F)cc4)cc3)c2c2c1OCCO2", "note": "[Example 3, 1-(4-fluorophenyl)-3-(4-((5-methoxy-2,3-dihydro-[1,4]dioxino[2,3-f]quinolin-10-yl)oxy)phenyl)urea]", "IC50": "50 to 500"}, {"smiles": "COCCCOc1cc2nccc(Oc3ccc(NC(=O)NC4CCCC4)c(Cl)c3)c2c2c1OCCO2", "note": "[Example 73, 1-(2-chloro-4-((5-(3-methoxypropoxy)-2,3-dihydro-[1,4]dioxino[2,3-f]quinolin-10-yl)oxy)phenyl)-3-cyclopentylurea]", "IC50": "50 to 500"}, {"smiles": "O=C(Nc1ccc(Oc2ccnc3cc(OC4CCOC4)c4c(c23)OCCO4)cc1)Nc1ccc(Cl)c(C(F)(F)F)c1", "note": "(stereo not shown) [Example 32, 1-(4-chloro-3-(trifluoromethyl)phenyl)-3-(4-((5-((tetrahydrofuran-3-yl)oxy)-2,3-dihydro-[1,4]dioxino[2,3-f]quinolin-10-yl)oxy)phenyl)urea]", "IC50": "50 to 500"}, {"smiles": "COCCOc1cc2nccc(Oc3ccc(NC(=O)NC4CCCC4)c(Cl)c3)c2c2c1OCCO2", "note": "[Example 71, 1-(2-chloro-4-((5-(2-methoxyethoxy)-2,3-dihydro-[1,4]dioxino[2,3-f]quinolin-10-yl)oxy)phenyl)-3-cyclopentylurea]", "IC50": "< 50"}, {"smiles": "COc1cc2nccc(Oc3ccc(NC(=O)NCC(C)C)c(Cl)c3)c2c2c1OCCO2", "note": "[Example 83, 1-(2-chloro-4-((5-methoxy-2,3-dihydro-[1,4]dioxino[2,3-f]quinolin-10-yl)oxy)phenyl)-3-isobutylurea]", "IC50": "50 to 500"}, {"smiles": "COCCCOc1cc2nccc(Oc3ccc(NC(=O)Nc4ccc(Cl)c(C(F)(F)F)c4)c(F)c3)c2c2c1OCCO2", "note": "[Example 39, 1-(4-chloro-3-(trifluoromethyl)phenyl)-3-(2-fluoro-4-((5-(3-methoxypropoxy)-2,3-dihydro-[1,4]dioxino[2,3-f]quinolin-10-yl)oxy)phenyl)urea]", "IC50": "50 to 500"}, {"smiles": "COc1cc2nccc(Oc3ccc(NC(=O)Nc4ccc(F)cc4F)cc3)c2c2c1OCCO2", "note": "[Example 4, 1-(2,4-difluorophenyl)-3-(4-((5-methoxy-2,3-dihydro-[1,4]dioxino[2,3-f]quinolin-10-yl)oxy)phenyl)urea]", "IC50": "50 to 500"}, {"smiles": "COCCCOc1cc2nccc(Oc3ccc(NC(=O)Nc4ccc(Cl)c(C(F)(F)F)c4)cc3F)c2c2c1OCCO2", "note": "[Example 38, 1-(4-chloro-3-(trifluoromethyl)phenyl)-3-(3-fluoro-4-((5-(3-methoxypropoxy)-2,3-dihydro-[1,4]dioxino[2,3-f]quinolin-10-yl)oxy)phenyl)urea]", "IC50": "50 to 500"}, {"smiles": "O=C(Nc1ccc(Oc2ccnc3cc(OC4COC4)c4c(c23)OCCO4)cc1)Nc1ccc(Cl)c(C(F)(F)F)c1", "note": "[Example 31]", "IC50": "50 to 500"}, {"smiles": "O=C(Nc1ccc(Oc2ccnc3cc(OCCCN4CCOCC4)c4c(c23)OCCO4)cc1Cl)NC1CCCC1", "note": "[Example 75, 1-(2-chloro-4-((5-(3-morpholinopropoxy)-2,3-dihydro-[1,4]dioxino[2,3-f]quinolin-10-yl)oxy)phenyl)-3-cyclopentylurea]", "IC50": "< 50"}, {"smiles": "N#CCOc1cc2nccc(Oc3ccc(NC(=O)Nc4ccc(Cl)c(C(F)(F)F)c4)cc3)c2c2c1OCCO2", "note": "[Example 13, 1-(4-chloro-3-(trifluoromethyl)phenyl)-3-(4-((5-(cyanomethoxy)-2,3-dihydro-[1,4]dioxino[2,3-f]quinolin-10-yl)oxy)phenyl)urea]", "IC50": "50 to 500"}, {"smiles": "COCCOc1cc2nccc(Oc3ccc(NC(=O)Nc4cc(C(F)(F)F)ccc4F)cc3)c2c2c1OCCO2", "note": "[Example 34, 1-(2-fluoro-5-(trifluoromethyl)phenyl)-3-(4-((5-(2-methoxyethoxy)-2,3-dihydro-[1,4]dioxino[2,3-f]quinolin-10-yl)oxy)phenyl)urea]", "IC50": "< 50"}, {"smiles": "O=C(Nc1ccc(Oc2ccnc3cc(OCCCN4CCS(=O)(=O)CC4)c4c(c23)OCCO4)cc1)Nc1ccc(Cl)c(C(F)(F)F)c1", "note": "[Example 23, 1-(4-chloro-3-(trifluoromethyl)phenyl)-3-(4-((5-(3-(1,1-dioxothiomorpholino)propoxy)-2,3-dihydro-[1,4]dioxino[2,3-f]quinolin-10-yl)oxy)phenyl)urea]", "IC50": "50 to 500"}, {"smiles": "O=C(Nc1ccc(Oc2ccnc3cc(OCCCN4CCOCC4)c4c(c23)OCCO4)c(F)c1)Nc1ccc(Cl)c(C(F)(F)F)c1", "note": "[Example 41, 1-(4-chloro-3-(trifluoromethyl)phenyl)-3-(3-fluoro-4-((5-(3-morpholinopropoxy)-2,3-dihydro-[1,4]dioxino[2,3-f]quinolin-10-yl)oxy)phenyl)urea]", "IC50": "50 to 500"}, {"smiles": "O=C(Nc1ccc(Oc2ccnc3cc(OC4CCOCC4)c4c(c23)OCCO4)cc1)Nc1ccc(Cl)c(C(F)(F)F)c1", "note": "[Example 33, 1-(4-chloro-3-(trifluoromethyl)phenyl)-3-(4-((5-((tetrahydro-2H-pyran-4-yl)oxy)-2,3-dihydro-[1,4]dioxino[2,3-f]quinolin-10-yl)oxy)phenyl)urea]", "IC50": "50 to 500"}]}, {"target": "RET tyrosine kinase (Homo sapiens (Human), UniProt P07949)", "assay": "Assay of small molecular compounds for inhibiting the activity of RET kinase (LANCE TR-FRET)", "conditions": "read-out: RET IC50", "units": {"IC50": "nM"}, "values": [{"smiles": "COCCOc1cc2nccc(Oc3ccc(NC(=O)Nc4ccc(Cl)c(C(F)(F)F)c4)cc3F)c2c2c1OCCO2", "note": "[Example 36, 1-(4-chloro-3-(trifluoromethyl)phenyl)-3-(3-fluoro-4-((5-(2-methoxyethoxy)-2,3-dihydro-[1,4]dioxino[2,3-f]quinolin-10-yl)oxy)phenyl)urea]", "IC50": "< 50"}, {"smiles": "COc1cc2nccc(Oc3ccc(NC(=O)NC(C)C)c(Cl)c3)c2c2c1OCCO2", "note": "[Example 82, 1-(2-chloro-4-((5-methoxy-2,3-dihydro-[1,4]dioxino[2,3-f]quinolin-10-yl)oxy)phenyl)-3-isopropylurea]", "IC50": "< 50"}, {"smiles": "COCCCOc1cc2nccc(Oc3ccc(NC(=O)Nc4cc(C(F)(F)F)ccc4F)cc3)c2c2c1OCCO2", "note": "[Example 40, 1-(2-fluoro-5-(trifluoromethyl)phenyl)-3-(4-((5-(3-methoxypropoxy)-2,3-dihydro-[1,4]dioxino[2,3-f]quinolin-10-yl)oxy)phenyl)urea]", "IC50": "< 50"}, {"smiles": "O=C(Nc1ccc(Oc2ccnc3cc(OCCCN4CCOCC4)c4c(c23)OCCO4)cc1)Nc1cc(C(F)(F)F)ccc1F", "note": "[Example 76, 1-(2-fluoro-5-(trifluoromethyl)phenyl)-3-(4-((5-(3-morpholinopropoxy)-2,3-dihydro-[1,4]dioxino[2,3-f]quinolin-10-yl)oxy)phenyl)urea]", "IC50": "< 50"}, {"smiles": "COc1cc2nccc(Oc3ccc(NC(=O)NC4CCC4)c(Cl)c3)c2c2c1OCCO2", "note": "[Example 68, 1-(2-chloro-4-((5-methoxy-2,3-dihydro-[1,4]dioxino[2,3-f]quinolin-10-yl)oxy)phenyl)-3-cyclobutylurea]", "IC50": "< 50"}, {"smiles": "CC1(C)CCN(CCCOc2cc3nccc(Oc4ccc(NC(=O)Nc5ccc(Cl)c(C(F)(F)F)c5)cc4)c3c3c2OCCO3)CC1", "note": "[Example 24, 1-(4-chloro-3-(trifluoromethyl)phenyl)-3-(4-((5-(3-(4,4-dimethylpiperidin-1-yl)propoxy)-2,3-dihydro-[1,4]dioxino[2,3-f]quinolin-10-yl)oxy)phenyl)urea]", "IC50": "< 50"}, {"smiles": "O=C(Nc1ccc(Cl)c(C(F)(F)F)c1)Nc1ccc(Oc2ccnc3cc(OCCCN4CCOCC4)c4c(c23)OCCO4)cc1F", "note": "[Example 42, 1-(4-chloro-3-(trifluoromethyl)phenyl)-3-(2-fluoro-4-((5-(3-morpholinopropoxy)-2,3-dihydro-[1,4]dioxino[2,3-f]quinolin-10-yl)oxy)phenyl)urea]", "IC50": "< 50"}, {"smiles": "COc1cc2nccc(Oc3ccc(NC(=O)Nc4ccc(Cl)c(C(F)(F)F)c4)c(F)c3)c2c2c1OCCO2", "note": "[Example 6, 1-(4-chloro-3-(trifluoromethyl)phenyl)-3-(2-fluoro-4-((5-methoxy-2,3-dihydro-[1,4]dioxino[2,3-f]quinolin-10-yl)oxy)phenyl)urea]", "IC50": "< 50"}, {"smiles": "CCOc1cc2nccc(Oc3ccc(NC(=O)Nc4ccc(Cl)c(C(F)(F)F)c4)c(F)c3)c2c2c1OCCO2", "note": "[Example 35, 1-(4-chloro-3-(trifluoromethyl)phenyl)-3-(4-((5-ethoxy-2,3-dihydro-[1,4]dioxino[2,3-f]quinolin-10-yl)oxy)-2-fluorophenyl)urea]", "IC50": "< 50"}, {"smiles": "CC(C)Oc1cc2nccc(Oc3ccc(NC(=O)NC4CC4)c(Cl)c3)c2c2c1OCCO2", "note": "[Example 44, 1-(2-chloro-4-((5-isopropoxy-2,3-dihydro-[1,4]dioxino[2,3-f]quinolin-10-yl)oxy)phenyl)-3-cyclopropylurea]", "IC50": "< 50"}, {"smiles": "CC(C)COc1cc2nccc(Oc3ccc(NC(=O)NC4CC4)c(Cl)c3)c2c2c1OCCO2", "note": "[Example 45, 1-(2-chloro-4-((5-isobutoxy-2,3-dihydro-[1,4]dioxino[2,3-f]quinolin-10-yl)oxy)phenyl)-3-cyclopropylurea]", "IC50": "< 50"}, {"smiles": "COCCOc1cc2nccc(Oc3ccc(NC(=O)Nc4ccc(Cl)c(C(F)(F)F)c4)cc3)c2c2c1OCCO2", "note": "[Example 8, 1-(4-chloro-3-(trifluoromethyl)phenyl)-3-(4-((5-(2-methoxyethoxy)-2,3-dihydro-[1,4]dioxino[2,3-f]quinolin-10-yl)oxy)phenyl)urea]", "IC50": "< 50"}, {"smiles": "CC(=O)N1CCN(CCCOc2cc3nccc(Oc4ccc(NC(=O)Nc5ccc(Cl)c(C(F)(F)F)c5)cc4)c3c3c2OCCO3)CC1", "note": "[Example 22, 1-(4-((5-(3-(4-acetylpiperazin-1-yl)propoxy)-2,3-dihydro-[1,4]dioxino[2,3-f]quinolin-10-yl)oxy)phenyl)-3-(4-chloro-3-(trifluoromethyl)phenyl)urea]", "IC50": "< 50"}, {"smiles": "O=C(Nc1ccc(Oc2ccnc3cc(OC4COC4)c4c(c23)OCCO4)cc1Cl)NC1CC1", "note": "[Example 65, 1-(2-chloro-4-((5-(oxetan-3-yloxy)-2,3-dihydro-[1,4]dioxino[2,3-f]quinolin-10-yl)oxy)phenyl)-3-cyclopropylurea]", "IC50": "< 50"}, {"smiles": "COc1cc2nccc(Oc3ccc(NC(=O)NC4CCCC4)c(Cl)c3)c2c2c1OCCO2", "note": "[Example 69, 1-(2-chloro-4-((5-methoxy-2,3-dihydro-[1,4]dioxino[2,3-f]quinolin-10-yl)oxy)phenyl)-3-cyclopentylurea]", "IC50": "< 50"}, {"smiles": "COc1cc2nccc(Oc3ccc(NC(=O)Nc4cc(C(F)(F)F)ccc4F)cc3)c2c2c1OCCO2", "note": "[Example 2, 1-(2-fluoro-5-(trifluoromethyl)phenyl)-3-(4-((5-methoxy-2,3-dihydro-[1,4]dioxino[2,3-f]quinolin-10-yl)oxy)phenyl)urea]", "IC50": "< 50"}]}]}
